Test system: E. coli strain W3110
Assay: Synergy assays: Biolog chemical sensitivity panels with Group IB metal, coefficient of drug interaction (CDI) from relative growth
Format: cell-based
Conditions: for CDI (coefficient of drug interaction), copper mixed with biocide: Copper (mM) section; for CDI (coefficient of drug interaction), gold + biocide: Gold (μM)
[1] = Silver 0.5 μM, 4th of four biocide concentrations, E. coli
[2] = Silver 1.0 μM, 4th of four biocide concentrations, E. coli
[3] = Silver 5.0 μM, 4th of four biocide concentrations, E. coli
[4] = Silver 0.5 μM, biocide concentration 3 of 4
[5] = Silver 0.5 μM, biocide concentration 4 of 4
[6] = Silver 1.0 μM, biocide concentration 3 of 4
[7] = Silver 1.0 μM, biocide concentration 4 of 4
[8] = Silver 5.0 μM, biocide concentration 3 of 4
[9] = Silver 5.0 μM, biocide concentration 4 of 4
[10] = 1st of 3 copper concentrations (value not shown), 1st of four biocide concentrations
[11] = 1st of 3 copper concentrations (value not shown), 2nd of four biocide concentrations
[12] = 1st of 3 copper concentrations (value not shown), 3rd of four biocide concentrations
[13] = 2nd of 3 copper concentrations (value not shown), 1st of four biocide concentrations
[14] = 2nd of 3 copper concentrations (value not shown), 2nd of four biocide concentrations
[15] = 2nd of 3 copper concentrations (value not shown), 3rd of four biocide concentrations
[16] = 3rd of 3 copper concentrations (value not shown), 1st of four biocide concentrations
[17] = 3rd of 3 copper concentrations (value not shown), 2nd of four biocide concentrations
[18] = 3rd of 3 copper concentrations (value not shown), 3rd of four biocide concentrations
[19] = 3rd of 3 copper concentrations (value not shown), 4th of four biocide concentrations
[20] = Gold section of Table 5, first of three gold concentrations (μM, value not given), biocide concentration 4 of 4
[21] = Gold section of Table 5, second of three gold concentrations (μM, value not given), biocide concentration 1 of 4
[22] = Gold section of Table 5, second of three gold concentrations (μM, value not given), biocide concentration 3 of 4
[23] = Gold section of Table 5, second of three gold concentrations (μM, value not given), biocide concentration 4 of 4
[24] = Gold section of Table 5, third of three gold concentrations (μM, value not given), biocide concentration 1 of 4
[25] = Gold section of Table 5, third of three gold concentrations (μM, value not given), biocide concentration 2 of 4
[26] = Gold section of Table 5, third of three gold concentrations (μM, value not given), biocide concentration 4 of 4
[27] = Silver 0.5 μM, 1st of four biocide concentrations, E. coli
[28] = Silver 0.5 μM, 2nd of four biocide concentrations, E. coli
[29] = Silver 1.0 μM, 2nd of four biocide concentrations, E. coli
[30] = Silver 1.0 μM, 3rd of four biocide concentrations, E. coli
[31] = Silver 5.0 μM, 1st of four biocide concentrations, E. coli
[32] = Silver 5.0 μM, 3rd of four biocide concentrations, E. coli
[33] = Copper (mM), 1st of 3 copper concentrations (head line not shown), biocide concentration 1 of 4, E. coli
[34] = Copper (mM), 1st of 3 copper concentrations (head line not shown), biocide concentration 2 of 4, E. coli
[35] = Copper (mM), 1st of 3 copper concentrations (head line not shown), biocide concentration 3 of 4, E. coli
[36] = Copper (mM), 1st of 3 copper concentrations (head line not shown), biocide concentration 4 of 4, E. coli
[37] = Copper (mM), 2nd of 3 copper concentrations (head line not shown), biocide concentration 1 of 4, E. coli
[38] = Copper (mM), 2nd of 3 copper concentrations (head line not shown), biocide concentration 2 of 4, E. coli
[39] = Copper (mM), 2nd of 3 copper concentrations (head line not shown), biocide concentration 3 of 4, E. coli
[40] = Copper (mM), 2nd of 3 copper concentrations (head line not shown), biocide concentration 4 of 4, E. coli
[41] = Copper (mM), 3rd of 3 copper concentrations (head line not shown), biocide concentration 1 of 4, E. coli
[42] = Copper (mM), 3rd of 3 copper concentrations (head line not shown), biocide concentration 2 of 4, E. coli
[43] = Copper (mM), 3rd of 3 copper concentrations (head line not shown), biocide concentration 3 of 4, E. coli
[44] = Copper (mM), 3rd of 3 copper concentrations (head line not shown), biocide concentration 4 of 4, E. coli
[45] = Silver 0.5 μM, biocide concentration 1 of 4
[46] = Silver 0.5 μM, biocide concentration 2 of 4
[47] = Silver 1.0 μM, biocide concentration 1 of 4
[48] = Silver 1.0 μM, biocide concentration 2 of 4
[49] = Silver 5.0 μM, biocide concentration 1 of 4
[50] = Silver 5.0 μM, biocide concentration 2 of 4

Compound: O=C(O)c1ccccc1S [thiosalicylic acid]
- CDI (coefficient of drug interaction), silver + biocide [1]: Tox
- CDI (coefficient of drug interaction), silver + biocide [2]: Tox
- CDI (coefficient of drug interaction), silver + biocide [3]: Tox

Compound: Cl.N[C@@H](CCl)C(=O)O [β-Chloro-L-alanine HCl, β-chloro-L-alanine hydrochloride]
- CDI [4]: Tox
- CDI [5]: Tox
- CDI [6]: Tox
- CDI [7]: Tox
- CDI [8]: Tox
- CDI [9]: Tox

Compound: Niaproof
- CDI (coefficient of drug interaction), copper mixed with biocide [10]: 1.26
- CDI (coefficient of drug interaction), copper mixed with biocide [11]: 1.45
- CDI (coefficient of drug interaction), copper mixed with biocide [12]: 0.74
- CDI (coefficient of drug interaction), copper mixed with biocide (1st of 3 copper concentrations (value not shown), 4th of four biocide concentrations): 0.91
- CDI (coefficient of drug interaction), copper mixed with biocide [13]: 1.09
- CDI (coefficient of drug interaction), copper mixed with biocide [14]: 1.20
- CDI (coefficient of drug interaction), copper mixed with biocide [15]: 0.43
- CDI (coefficient of drug interaction), copper mixed with biocide (2nd of 3 copper concentrations (value not shown), 4th of four biocide concentrations): 0.46
- CDI (coefficient of drug interaction), copper mixed with biocide [16]: 1.19
- CDI (coefficient of drug interaction), copper mixed with biocide [17]: 1.00
- CDI (coefficient of drug interaction), copper mixed with biocide [18]: 0.73
- CDI (coefficient of drug interaction), copper mixed with biocide [19]: 1.32
- CDI (coefficient of drug interaction) (Gold section of Table 5, first of three gold concentrations (μM, value not given), biocide concentration 1 of 4): 1.32
- CDI (coefficient of drug interaction) [20]: 1.27
- CDI (coefficient of drug interaction) [21]: 1.21
- CDI (coefficient of drug interaction) (Gold section of Table 5, second of three gold concentrations (μM, value not given), biocide concentration 2 of 4): 1.03
- CDI (coefficient of drug interaction) [22]: 1.09
- CDI (coefficient of drug interaction) [23]: 1.15
- CDI (coefficient of drug interaction) [24]: 1.35
- CDI (coefficient of drug interaction) [25]: 1.20
- CDI (coefficient of drug interaction) (Gold section of Table 5, third of three gold concentrations (μM, value not given), biocide concentration 3 of 4): 0.95
- CDI (coefficient of drug interaction) [26]: 1.51
- CDI (coefficient of drug interaction), silver + biocide [27]: 1.07
- CDI (coefficient of drug interaction), silver + biocide [28]: 1.17
- CDI (coefficient of drug interaction), silver + biocide [1]: 1.74
- CDI (coefficient of drug interaction), silver + biocide [29]: 1.17
- CDI (coefficient of drug interaction), silver + biocide [30]: 0.99
- CDI (coefficient of drug interaction), silver + biocide [2]: 1.45
- CDI (coefficient of drug interaction), silver + biocide [31]: 0.89
- CDI (coefficient of drug interaction), silver + biocide (Silver 5.0 μM, 2nd of four biocide concentrations, E. coli): 0.99
- CDI (coefficient of drug interaction), silver + biocide [32]: 0.78
- CDI (coefficient of drug interaction), silver + biocide [3]: 0.55

Compound: acriflavine
- CDI (coefficient of drug interaction), copper mixed with biocide [10]: 1.00
- CDI (coefficient of drug interaction), copper mixed with biocide [11]: 1.03
- CDI (coefficient of drug interaction), copper mixed with biocide [12]: 0.95
- CDI (coefficient of drug interaction), copper mixed with biocide [13]: 0.88
- CDI (coefficient of drug interaction), copper mixed with biocide [14]: 0.91
- CDI (coefficient of drug interaction), copper mixed with biocide [15]: 0.95
- CDI (coefficient of drug interaction), copper mixed with biocide [16]: 0.89
- CDI (coefficient of drug interaction), copper mixed with biocide [17]: 0.82
- CDI (coefficient of drug interaction), copper mixed with biocide [18]: 0.81
- CDI (coefficient of drug interaction), copper mixed with biocide [19]: 0.78
- CDI (coefficient of drug interaction) (Gold 5 μM, biocide concentration 1 of 4, E. coli): 0.92
- CDI (coefficient of drug interaction) (Gold 5 μM, biocide concentration 2 of 4, E. coli): 0.94
- CDI (coefficient of drug interaction) (Gold 5 μM, biocide concentration 3 of 4, E. coli): 0.94
- CDI (coefficient of drug interaction) (Gold 25 μM, biocide concentration 1 of 4, E. coli): 0.96
- CDI (coefficient of drug interaction) (Gold 25 μM, biocide concentration 3 of 4, E. coli): 0.96
- CDI (coefficient of drug interaction) (Gold 25 μM, biocide concentration 4 of 4, E. coli): 0.87
- CDI (coefficient of drug interaction) (Gold 50 μM, biocide concentration 1 of 4, E. coli): 0.86
- CDI (coefficient of drug interaction) (Gold 50 μM, biocide concentration 2 of 4, E. coli): 1.00
- CDI (coefficient of drug interaction) (Gold 50 μM, biocide concentration 3 of 4, E. coli): 0.96
- CDI (coefficient of drug interaction) (Gold 50 μM, biocide concentration 4 of 4, E. coli): 0.84
- CDI (coefficient of drug interaction), silver + biocide [27]: 0.99
- CDI (coefficient of drug interaction), silver + biocide [28]: 1.03
- CDI (coefficient of drug interaction), silver + biocide (Silver 0.5 μM, 3rd of four biocide concentrations, E. coli): 0.86
- CDI (coefficient of drug interaction), silver + biocide [1]: 0.73
- CDI (coefficient of drug interaction), silver + biocide (Silver 1.0 μM, 1st of four biocide concentrations, E. coli): 0.97
- CDI (coefficient of drug interaction), silver + biocide [29]: 0.95
- CDI (coefficient of drug interaction), silver + biocide [30]: 0.87
- CDI (coefficient of drug interaction), silver + biocide [2]: 0.59
- CDI (coefficient of drug interaction), silver + biocide [31]: 0.96
- CDI (coefficient of drug interaction), silver + biocide [32]: 0.54
- CDI (coefficient of drug interaction), silver + biocide [3]: 0.24

Compound: capreomycin
- CDI (coefficient of drug interaction) [33]: 1.10
- CDI (coefficient of drug interaction) [34]: 0.91
- CDI (coefficient of drug interaction) [35]: 0.83
- CDI (coefficient of drug interaction) [36]: 0.87
- CDI (coefficient of drug interaction) [37]: 0.87
- CDI (coefficient of drug interaction) [38]: 0.86
- CDI (coefficient of drug interaction) [39]: 0.90
- CDI (coefficient of drug interaction) [40]: Tox
- CDI (coefficient of drug interaction) [41]: 0.86
- CDI (coefficient of drug interaction) [42]: 0.57
- CDI (coefficient of drug interaction) [43]: 0.49
- CDI (coefficient of drug interaction) [44]: 0.60
- CDI (coefficient of drug interaction) [20]: 1.03
- CDI (coefficient of drug interaction) [21]: 1.03
- CDI (coefficient of drug interaction) [22]: 0.97
- CDI (coefficient of drug interaction) [23]: 1.06
- CDI (coefficient of drug interaction) [24]: 1.00
- CDI (coefficient of drug interaction) [25]: 0.98
- CDI (coefficient of drug interaction) [26]: 1.14
- CDI [45]: 0.95
- CDI [46]: 0.92
- CDI [4]: 0.96
- CDI [5]: Tox
- CDI [47]: 0.69
- CDI [48]: 0.37
- CDI [6]: 0.35
- CDI [7]: Tox
- CDI [49]: 0.41
- CDI [50]: 0.11
- CDI [8]: 0.02
- CDI [9]: Tox

Compound: colistin
- CDI (coefficient of drug interaction) [33]: 0.95
- CDI (coefficient of drug interaction) [34]: 0.98
- CDI (coefficient of drug interaction) [35]: Tox
- CDI (coefficient of drug interaction) [36]: Tox
- CDI (coefficient of drug interaction) [37]: 0.82
- CDI (coefficient of drug interaction) [38]: 0.87
- CDI (coefficient of drug interaction) [39]: Tox
- CDI (coefficient of drug interaction) [40]: Tox
- CDI (coefficient of drug interaction) [41]: 0.63
- CDI (coefficient of drug interaction) [42]: 0.45
- CDI (coefficient of drug interaction) [43]: Tox
- CDI (coefficient of drug interaction) [44]: Tox
- CDI (coefficient of drug interaction), gold + biocide (first of 3 gold concentrations, biocide concentration 1 of 4): 1.10
- CDI (coefficient of drug interaction), gold + biocide (first of 3 gold concentrations, biocide concentration 2 of 4): 1.18
- CDI (coefficient of drug interaction), gold + biocide (first of 3 gold concentrations, biocide concentration 3 of 4): Tox
- CDI (coefficient of drug interaction), gold + biocide (first of 3 gold concentrations, biocide concentration 4 of 4): Tox
- CDI (coefficient of drug interaction), gold + biocide (second of 3 gold concentrations, biocide concentration 2 of 4): 0.95
- CDI (coefficient of drug interaction), gold + biocide (second of 3 gold concentrations, biocide concentration 3 of 4): Tox
- CDI (coefficient of drug interaction), gold + biocide (second of 3 gold concentrations, biocide concentration 4 of 4): Tox
- CDI (coefficient of drug interaction), gold + biocide (third of 3 gold concentrations, biocide concentration 1 of 4): 1.09
- CDI (coefficient of drug interaction), gold + biocide (third of 3 gold concentrations, biocide concentration 2 of 4): 0.14
- CDI (coefficient of drug interaction), gold + biocide (third of 3 gold concentrations, biocide concentration 3 of 4): Tox
- CDI (coefficient of drug interaction), gold + biocide (third of 3 gold concentrations, biocide concentration 4 of 4): Tox
- CDI [45]: 0.95
- CDI [46]: 0.75
- CDI [4]: Tox
- CDI [5]: Tox
- CDI [47]: 0.97
- CDI [48]: 0.24
- CDI [6]: Tox
- CDI [7]: Tox
- CDI [49]: 0.84
- CDI [50]: 0.08
- CDI [8]: Tox
- CDI [9]: Tox
